Test results from US9995734B2, “Human T cell line assay for evaluating the immunologic identity of glatiramer acetate preparations” (Mylan Inc., priority 2013, dated 2018).

Tested on: Donor 3 GMA T-Cell Lines
Assay: ATP proliferation assay (CellTiter Glo), Donor 3 GMA T-cell lines, incl. reactivity to non-canonical GA peptides
Assay type: cell-based, human
Conditions: for ATP proliferation assay: Day 14

With glatiramer acetate [GMA] the “ratio of proliferation in response to GMA:control (APC only)” value was “greater than 3.0”, the ATP proliferation assay (165-B2G, 10 μg/mL, control 9692) was 28770 RLU and the “response in proliferation assay” value (165-B5G, 165-D8G, 165-E7G, 165-F5G, Day 56, 0, 1, 5, 10, 100 μg/mL, GMA and COP responses comparable) was “responded well”. It also gave an ATP proliferation assay (165-B5G, 10 μg/mL, control 15423) of 63023 RLU, an ATP proliferation assay (165-B11G, 10 μg/mL, control 18412) of 56588 RLU and an ATP proliferation assay (165-C4G, 10 μg/mL, control 14869) of 62306 RLU. The ATP proliferation assay (165-C5G, 10 μg/mL, control 14240) was 76296 RLU, the ATP proliferation assay (165-C8G, 10 μg/mL, control 18205) was 79281 RLU and the ATP proliferation assay (165-D8G, 10 μg/mL, control 30331) was 136938 RLU. The ATP proliferation assay (165-E7G, 10 μg/mL, control 18215) was 66364 RLU, the ATP proliferation assay (165-E9G, 10 μg/mL, control 17059) was 52948 RLU and the ATP proliferation assay (165-F2G, 10 μg/mL, control 14734) was 44951 RLU. For the same substance, the ATP proliferation assay (165-F5G, 10 μg/mL, control 16943) was 100677 RLU, the ATP proliferation assay (165-F8G, 10 μg/mL, control 17986) was 72716 RLU and the ATP proliferation assay (165-F10G, 10 μg/mL, control 13314) was 42447 RLU. The ATP proliferation assay (165-H11G, 10 μg/mL, control 17149) was 52850 RLU, the “Proliferation (luminescent ATP assay), Mean” value (T-cell line 165-05G, 1 μg/mL antigen, Day 50 of culturing, No Antigen Value 2149) was 3999 RLU and the “Proliferation (luminescent ATP assay), Mean” value (T-cell line 165-05G, 3 μg/mL antigen, Day 50 of culturing, No Antigen Value 2149) was 35643 RLU. The “Proliferation (luminescent ATP assay), Mean” value (T-cell line 165-05G, 10 μg/mL antigen, Day 50 of culturing, No Antigen Value 2149) was 53130 RLU, the “Proliferation (luminescent ATP assay), Mean” value (T-cell line 165-05G, 30 μg/mL antigen, Day 50 of culturing, No Antigen Value 2149) was 55596 RLU and the “Mean, ATP proliferation assay” value (T-cell line 165-B2G, 1 μg/mL, Day 40) was 4034. For the same substance, the “Mean, ATP proliferation assay” value (T-cell line 165-B2G, 3 μg/mL, Day 40) was 20994, the “Mean, ATP proliferation assay” value (T-cell line 165-B2G, 10 μg/mL, Day 40) was 38244 and the “Mean, ATP proliferation assay” value (T-cell line 165-B5G, 1 μg/mL, Day 40) was 3866. The “Proliferation (luminescent ATP assay), Mean” value (T-cell line 165-B5G, 1.25 μg/mL antigen, Day 55 of culturing, No Antigen Value 846) was 1406 RLU, the “Proliferation (luminescent ATP assay), Mean” value (T-cell line 165-B5G, 2.5 μg/mL antigen, Day 55 of culturing, No Antigen Value 846) was 2537 RLU and the “Mean, ATP proliferation assay” value (T-cell line 165-B5G, 3 μg/mL, Day 40) was 6591. The “Proliferation (luminescent ATP assay), Mean” value (T-cell line 165-B5G, 5 μg/mL antigen, Day 55 of culturing, No Antigen Value 846) was 5205 RLU, the “Proliferation (luminescent ATP assay), Mean” value (T-cell line 165-B5G, 10 μg/mL antigen, Day 55 of culturing, No Antigen Value 846) was 11364 RLU and the “Mean, ATP proliferation assay” value (T-cell line 165-B5G, 10 μg/mL, Day 40) was 12367. For the same substance, the “Mean, ATP proliferation assay” value (T-cell line 165-C4G, 1 μg/mL, Day 40) was 3434, the “Mean, ATP proliferation assay” value (T-cell line 165-C4G, 3 μg/mL, Day 40) was 6312 and the “Mean, ATP proliferation assay” value (T-cell line 165-C4G, 10 μg/mL, Day 40) was 19169. For the same substance, the “Mean, ATP proliferation assay” value (T-cell line 165-C5G, 1 μg/mL, Day 40) was 12236, the “Proliferation (luminescent ATP assay), Mean” value (T-cell line 165-C5G, 1.25 μg/mL antigen, autologous B-LCL) was 2511 RLU and the “Proliferation (luminescent ATP assay), Mean” value (T-cell line 165-C5G, 2.5 μg/mL antigen, autologous B-LCL) was 26253 RLU. For the same substance, the “Mean, ATP proliferation assay” value (T-cell line 165-C5G, 3 μg/mL, Day 40) was 36288, the “Proliferation (luminescent ATP assay), Mean” value (T-cell line 165-C5G, 5 μg/mL antigen, autologous B-LCL) was 67559 RLU and the “Proliferation (luminescent ATP assay), Mean” value (T-cell line 165-C5G, 10 μg/mL antigen, autologous B-LCL) was 74630 RLU. For the same substance, the “Mean, ATP proliferation assay” value (T-cell line 165-C5G, 10 μg/mL, Day 40) was 45444, the “Mean, ATP proliferation assay” value (T-cell line 165-C8G, 1 μg/mL, tested with the Donor 3 COP lines of Table 25) was 5605 RLU and the “Mean, ATP proliferation assay” value (T-cell line 165-C8G, 3 μg/mL, tested with the Donor 3 COP lines of Table 25) was 5002 RLU. The “Mean, ATP proliferation assay” value (T-cell line 165-C8G, 10 μg/mL, tested with the Donor 3 COP lines of Table 25) was 30200 RLU, the “Mean, ATP proliferation assay” value (T-cell line 165-D8G, 1 μg/mL, Day 40) was 9427 and the “Mean, ATP proliferation assay” value (T-cell line 165-D8G, 3 μg/mL, Day 40) was 12644. The “Mean, ATP proliferation assay” value (T-cell line 165-D8G, 10 μg/mL, Day 40) was 31264, the “Mean, ATP proliferation assay” value (T-cell line 165-E7G, 1 μg/mL, Day 40) was 2569 and the “Proliferation (luminescent ATP assay), Mean” value (T-cell line 165-E7G, 1.25 μg/mL antigen, autologous B-LCL, Day 55) was 8875 RLU. The “Proliferation (luminescent ATP assay), Mean” value (T-cell line 165-E7G, 2.5 μg/mL antigen, autologous B-LCL, Day 55) was 10248 RLU, the “Mean, ATP proliferation assay” value (T-cell line 165-E7G, 3 μg/mL, Day 40) was 6610 and the “Proliferation (luminescent ATP assay), Mean” value (T-cell line 165-E7G, 5 μg/mL antigen, autologous B-LCL, Day 55) was 26934 RLU. For the same substance, the “Proliferation (luminescent ATP assay), Mean” value (T-cell line 165-E7G, 10 μg/mL antigen, autologous B-LCL, Day 55) was 30721 RLU, the “Mean, ATP proliferation assay” value (T-cell line 165-E7G, 10 μg/mL, Day 40) was 14279 and the “Proliferation (luminescent ATP assay), Mean” value (T-cell line 165-E9G, 1 μg/mL antigen, Day 50 of culturing, No Antigen Value 1742) was 1889 RLU. For the same substance, the “Mean, ATP proliferation assay” value (T-cell line 165-E9G, 1 μg/mL, Day 40) was 2961, the “Proliferation (luminescent ATP assay), Mean” value (T-cell line 165-E9G, 1.25 μg/mL antigen, autologous B-LCL) was 253 RLU and the “Proliferation (luminescent ATP assay), Mean” value (T-cell line 165-E9G, 2.5 μg/mL antigen, autologous B-LCL) was 1647 RLU. The “Proliferation (luminescent ATP assay), Mean” value (T-cell line 165-E9G, 3 μg/mL antigen, Day 50 of culturing, No Antigen Value 1742) was 5974 RLU, the “Mean, ATP proliferation assay” value (T-cell line 165-E9G, 3 μg/mL, Day 40) was 7837 and the “Proliferation (luminescent ATP assay), Mean” value (T-cell line 165-E9G, 5 μg/mL antigen, autologous B-LCL) was 12964 RLU. For the same substance, the “Proliferation (luminescent ATP assay), Mean” value (T-cell line 165-E9G, 10 μg/mL antigen, autologous B-LCL) was 13809 RLU, the “Mean, ATP proliferation assay” value (T-cell line 165-E9G, 10 μg/mL, Day 40) was 24935 and the “Proliferation (luminescent ATP assay), Mean” value (T-cell line 165-E9G, 30 μg/mL antigen, Day 50 of culturing, No Antigen Value 1742) was 39472 RLU. The “Proliferation (luminescent ATP assay), Mean” value (T-cell line 165-E9G, 10 μpg/mL antigen, Day 50 of culturing, No Antigen Value 1742) was 37352 RLU, the “Mean, ATP proliferation assay” value (T-cell line 165-F2G, 1 μg/mL, Day 40) was 1753 and the “Mean, ATP proliferation assay” value (T-cell line 165-F2G, 3 μg/mL, Day 40) was 1422. The “Mean, ATP proliferation assay” value (T-cell line 165-F2G, 10 μg/mL, Day 40) was 1502, the “Mean, ATP proliferation assay” value (T-cell line 165-F5G, 1 μg/mL, Day 40) was 5669 and the “Proliferation (luminescent ATP assay), Mean” value (T-cell line 165-F5G, 1.25 μg/mL antigen, autologous B-LCL) was 1071 RLU. For the same substance, the “Proliferation (luminescent ATP assay), Mean” value (T-cell line 165-F5G, 2.5 μg/mL antigen, autologous B-LCL) was 19012 RLU, the “Mean, ATP proliferation assay” value (T-cell line 165-F5G, 3 μg/mL, Day 40) was 14024 and the “Proliferation (luminescent ATP assay), Mean” value (T-cell line 165-F5G, 5 μg/mL antigen, autologous B-LCL) was 45384 RLU. For the same substance, the “Proliferation (luminescent ATP assay), Mean” value (T-cell line 165-F5G, 10 μg/mL antigen, autologous B-LCL) was 48029 RLU, the “Mean, ATP proliferation assay” value (T-cell line 165-F5G, 10 μg/mL, Day 40) was 23774 and the “Mean, ATP proliferation assay” value (T-cell line 165-F8G, 1 μg/mL, Day 40) was 4804. For the same substance, the “Mean, ATP proliferation assay” value (T-cell line 165-F8G, 3 μg/mL, Day 40) was 6841, the “Mean, ATP proliferation assay” value (T-cell line 165-F8G, 10 μg/mL, Day 40) was 11880 and the “Proliferation (luminescent ATP assay), Mean” value (T-cell line 165-F10G, 1 μg/mL antigen, Day 50 of culturing, No Antigen Value 3752) was 4734 RLU. The “Mean, ATP proliferation assay” value (T-cell line 165-F10G, 1 μg/mL, Day 40) was 6015, the “Proliferation (luminescent ATP assay), Mean” value (T-cell line 165-F10G, 1.25 μg/mL antigen, autologous B-LCL) was 5731 RLU and the “Proliferation (luminescent ATP assay), Mean” value (T-cell line 165-F10G, 2.5 μg/mL antigen, autologous B-LCL) was 38905 RLU. For the same substance, the “Proliferation (luminescent ATP assay), Mean” value (T-cell line 165-F10G, 3 μg/mL antigen, Day 50 of culturing, No Antigen Value 3752) was 35371 RLU, the “Mean, ATP proliferation assay” value (T-cell line 165-F10G, 3 μg/mL, Day 40) was 17900 and the “Proliferation (luminescent ATP assay), Mean” value (T-cell line 165-F10G, 5 μg/mL antigen, autologous B-LCL) was 66355 RLU. For the same substance, the “Proliferation (luminescent ATP assay), Mean” value (T-cell line 165-F10G, 10 μg/mL antigen, Day 50 of culturing, No Antigen Value 3752) was 58913 RLU, the “Proliferation (luminescent ATP assay), Mean” value (T-cell line 165-F10G, 10 μg/mL antigen, autologous B-LCL) was 57329 RLU and the “Mean, ATP proliferation assay” value (T-cell line 165-F10G, 10 μg/mL, Day 40) was 30198. The “Proliferation (luminescent ATP assay), Mean” value (T-cell line 165-F10G, 30 μg/mL antigen, Day 50 of culturing, No Antigen Value 3752) was 59173 RLU, the “Proliferation (luminescent ATP assay), Mean” value (T-cell line 165-H11G, 1 μg/mL antigen, Day 50 of culturing, No Antigen Value 1485) was 9569 RLU and the “Mean, ATP proliferation assay” value (T-cell line 165-H11G, 1 μg/mL, Day 40) was 10205. For the same substance, the “Proliferation (luminescent ATP assay), Mean” value (T-cell line 165-H11G, 1.25 μg/mL antigen, autologous B-LCL) was 8 RLU, the “Proliferation (luminescent ATP assay), Mean” value (T-cell line 165-H11G, 2.5 μg/mL antigen, autologous B-LCL) was 33793 RLU and the “Proliferation (luminescent ATP assay), Mean” value (T-cell line 165-H11G, 3 μg/mL antigen, Day 50 of culturing, No Antigen Value 1485) was 46539 RLU. The “Mean, ATP proliferation assay” value (T-cell line 165-H11G, 3 μg/mL, Day 40) was 27515, the “Proliferation (luminescent ATP assay), Mean” value (T-cell line 165-H11G, 5 μg/mL antigen, autologous B-LCL) was 70949 RLU and the “Proliferation (luminescent ATP assay), Mean” value (T-cell line 165-H11G, 10 μg/mL antigen, Day 50 of culturing, No Antigen Value 1485) was 49104 RLU. For the same substance, the “Proliferation (luminescent ATP assay), Mean” value (T-cell line 165-H11G, 10 μg/mL antigen, autologous B-LCL) was 72728 RLU, the “Mean, ATP proliferation assay” value (T-cell line 165-H11G, 10 μg/mL, Day 40) was 44067 and the “Proliferation (luminescent ATP assay), Mean” value (T-cell line 165-H11G, 30 μg/mL antigen, Day 50 of culturing, No Antigen Value 1485) was 32179 RLU. The “responsiveness in proliferation assay” value (all 8 Donor 3 GMA cell lines tested, Day 32, 10 μg/mL (Table 19)) was “responsive” and the “responsiveness in proliferation assay” value (eleven of the 12 cell lines (all but F2G), Day 40, 1, 3 or 10 μg/mL (Table 21)) was “responsive”.
